Literature values in patent US9206425B2, “Methods for treating Niemann-Pick type C disease” (Trustees of Dartmouth College, priority 2011, dated 2015).
Read-outs that look alike come from different tables or passages of the source.

Assays:
[1] = tested on: coronary atherosclerosis / familial hypercholesterolemia
[2] = tested on: mouse model for Alzheimer disease
[3] = tested on: human macrophages; details: in vitro
[4] = target: T1, hACAT-2 (Homo sapiens, UniProt O75908)
T1 sequence (O75908 1-522): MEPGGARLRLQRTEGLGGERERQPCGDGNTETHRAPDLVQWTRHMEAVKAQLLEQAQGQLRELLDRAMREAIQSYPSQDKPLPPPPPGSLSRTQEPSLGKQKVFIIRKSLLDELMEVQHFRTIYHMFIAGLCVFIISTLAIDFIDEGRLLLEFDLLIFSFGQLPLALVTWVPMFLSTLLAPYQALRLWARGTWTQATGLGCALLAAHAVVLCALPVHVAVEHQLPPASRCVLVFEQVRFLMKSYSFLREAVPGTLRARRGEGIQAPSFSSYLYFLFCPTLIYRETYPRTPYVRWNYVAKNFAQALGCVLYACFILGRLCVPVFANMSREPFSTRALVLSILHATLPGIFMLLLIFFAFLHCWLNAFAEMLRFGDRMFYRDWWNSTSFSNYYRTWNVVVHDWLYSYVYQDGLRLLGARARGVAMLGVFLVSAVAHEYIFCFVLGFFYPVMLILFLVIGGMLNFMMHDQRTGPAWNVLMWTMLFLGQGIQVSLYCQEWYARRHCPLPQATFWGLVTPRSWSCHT

[5] = tested on: NPC1^−/− mice
[6] = tested on: NPC mice and NPC cats
[7] = target: T2, ACAT1 (Homo sapiens, UniProt P35610); details: Lee et al. 2004
T2 sequence (P35610 1-550): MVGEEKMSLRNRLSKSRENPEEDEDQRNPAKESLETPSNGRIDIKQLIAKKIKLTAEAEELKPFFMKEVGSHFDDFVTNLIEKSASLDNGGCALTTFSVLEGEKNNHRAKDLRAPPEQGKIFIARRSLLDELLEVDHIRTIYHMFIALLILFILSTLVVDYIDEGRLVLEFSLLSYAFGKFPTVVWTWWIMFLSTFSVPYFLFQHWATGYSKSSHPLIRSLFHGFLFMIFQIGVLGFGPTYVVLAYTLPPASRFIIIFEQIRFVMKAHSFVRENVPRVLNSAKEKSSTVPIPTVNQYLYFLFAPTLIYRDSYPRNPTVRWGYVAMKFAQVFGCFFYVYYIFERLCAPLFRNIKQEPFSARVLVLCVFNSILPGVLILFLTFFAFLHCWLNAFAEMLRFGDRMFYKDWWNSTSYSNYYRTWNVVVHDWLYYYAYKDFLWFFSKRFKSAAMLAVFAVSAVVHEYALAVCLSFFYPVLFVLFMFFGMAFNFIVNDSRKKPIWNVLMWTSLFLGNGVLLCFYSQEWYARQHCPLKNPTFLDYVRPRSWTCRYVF

[8] = target: T2, ACAT1; details: Cho et al. 2003
[9] = tested on: NPC disease; details: humans, two-year study
[10] = tested on: ACAT1 and ACAT2; details: Kitayama et al. 2006
[11] = mouse model for Alzheimer disease
[12] = continuous administration starting at PND 7

In the case of `CSc1cc(C)nc(SC)c1NC(=O)CN1CCN(CCSc2nc3ccccc3[nH]2)CC1` [K-604], the safety in vivo (laboratory animals) is given as “safe for use in vivo”.

In the case of `CC(C)c1cc(C(C)C)c(CC(=O)NS(=O)(=O)Oc2c(C(C)C)cccc2C(C)C)c(C(C)C)c1` [Avasimibe], the “progression of coronary atherosclerosis” value ([1]; humans, in combination with a statin drug) is listed as “failed to demonstrate efficacy”, the safety (administered to rats, dogs, and humans) is listed as “safe” and the “activity in mouse model for Alzheimer's disease” value ([2]; 14.4 mg/kg/day) is listed as “beneficial activity”. For the same compound, the amyloid plaque load [2, 11] was “significant decreases”, the cognitive deficits [2, 11] was “reduction in cognitive deficits” and the “foam cell formation in macrophages” value [3] was “reduces foam cell formation”.

In the case of `COc1ccc([C@@H](O)[C@@H](C)Oc2ccc([C@H]3O[C@H](c4ccc(O[C@H](C)[C@H](O)c5ccc6c(c5)OCO6)c(OC)c4)[C@H](C)[C@H]3C)cc2OC)cc1OC` [manassantin B], the “inhibition of hACAT-2” value ([4]; at 1 mM) is listed as 32%.

In the case of `CC(O)COC[C@H]1O[C@@H]2O[C@H]3[C@H](O)[C@@H](O)[C@@H](O[C@H]4[C@H](O)[C@@H](O)[C@@H](O[C@H]5[C@H](O)[C@@H](O)[C@@H](O[C@H]6[C@H](O)[C@@H](O)[C@@H](O[C@H]7[C@H](O)[C@@H](O)[C@@H](O[C@H]8[C@H](O)[C@@H](O)[C@@H](O[C@H]1[C@H](O)[C@H]2O)O[C@@H]8COCC(C)O)O[C@@H]7COCC(C)O)O[C@@H]6COCC(C)O)O[C@@H]5COCC(C)O)O[C@@H]4COCC(C)O)O[C@@H]3COCC(C)O` (stereo partly drawn) [HPCD, hydroxypropyl beta-cyclodextrin], the prolonged lifespan ([5]; single injection at PND 7) is given as 27%, the cholesterol accumulation ([5]; weekly treatment) is given as “normalize cholesterol accumulation” and the survival ([5]; weekly treatment) is given as “prolong survival”. For the same compound, the “crossing the blood brain barrier” value ([6]; mouse, in vivo) was “difficulty in crossing the blood brain barrier” and the “macrophage activation in the lungs” value ([6]; treated NPC mice and NPC cats) was “increases in macrophage activation”.

For saucerneol B, the IC50 ([4]; Lee et al. 2004) is listed as 124 µM and the IC50 [7] is listed as 43 µM.

For `CCOC(=O)OC(=O)OCC` [diethyl pyrocarbonate], the “greater activity on ACAT1 compared to ACAT-2” value [8] is listed as 4 fold.

In the case of `CCCCN1C[C@H](O)[C@@H](O)[C@H](O)[C@H]1CO` [Miglustat], the clinical onset [5, 12] is listed as “significantly delayed”, the prolonged lifespan [5, 12] is listed as 49% and the “patients with stabilized NPC disease progression” value [9] is listed as 80 % of patients.

In the case of `CCCCCCCCN1CCc2c(C)c(CC(=O)O)c(C)c(NC(=O)C(C)(C)C)c21` [Pactimibe], the “efficacy as supplement to statin treatment” value ([1]; patients with familial hypercholesterolemia) is listed as “lacked efficacy” and the “potency on ACAT1 versus ACAT2” value [10] is listed as “approximately equal potency”.
